Values of other authors in US10603401B2, “Dressing system” (Edixomed Limited, priority 2015, dated 2020).

Settings: healthy 70 kg-adult

Row | Compound | Generally accepted safe dosage for topical anaesthesia
1 | COC(=O)[C@H]1[C@@H](OC(=O)c2ccccc2)C[C@@H]2CC[C@H]1N2C [cocaine] | 200 mg
2 | CCN(CC)CC(=O)Nc1c(C)cccc1C [lidocaine] | 750 mg
3 | CCCCNc1ccc(C(=O)OCCN(C)C)cc1 [tetracaine] | 50 mg
